Assays:
Type in all cases: cell-based
[1] = molecular target: T1, Metabotropic glutamate receptor 5 (Homo sapiens, UniProt P41594); test: Negative allosteric modulation of human mGlu5 receptor expressed in HEK293 cells assessed as inhibition of L-glutamate-induced activity after 1 hr by FLIPR assay
Target sequence in this assay (P41594 whole entry): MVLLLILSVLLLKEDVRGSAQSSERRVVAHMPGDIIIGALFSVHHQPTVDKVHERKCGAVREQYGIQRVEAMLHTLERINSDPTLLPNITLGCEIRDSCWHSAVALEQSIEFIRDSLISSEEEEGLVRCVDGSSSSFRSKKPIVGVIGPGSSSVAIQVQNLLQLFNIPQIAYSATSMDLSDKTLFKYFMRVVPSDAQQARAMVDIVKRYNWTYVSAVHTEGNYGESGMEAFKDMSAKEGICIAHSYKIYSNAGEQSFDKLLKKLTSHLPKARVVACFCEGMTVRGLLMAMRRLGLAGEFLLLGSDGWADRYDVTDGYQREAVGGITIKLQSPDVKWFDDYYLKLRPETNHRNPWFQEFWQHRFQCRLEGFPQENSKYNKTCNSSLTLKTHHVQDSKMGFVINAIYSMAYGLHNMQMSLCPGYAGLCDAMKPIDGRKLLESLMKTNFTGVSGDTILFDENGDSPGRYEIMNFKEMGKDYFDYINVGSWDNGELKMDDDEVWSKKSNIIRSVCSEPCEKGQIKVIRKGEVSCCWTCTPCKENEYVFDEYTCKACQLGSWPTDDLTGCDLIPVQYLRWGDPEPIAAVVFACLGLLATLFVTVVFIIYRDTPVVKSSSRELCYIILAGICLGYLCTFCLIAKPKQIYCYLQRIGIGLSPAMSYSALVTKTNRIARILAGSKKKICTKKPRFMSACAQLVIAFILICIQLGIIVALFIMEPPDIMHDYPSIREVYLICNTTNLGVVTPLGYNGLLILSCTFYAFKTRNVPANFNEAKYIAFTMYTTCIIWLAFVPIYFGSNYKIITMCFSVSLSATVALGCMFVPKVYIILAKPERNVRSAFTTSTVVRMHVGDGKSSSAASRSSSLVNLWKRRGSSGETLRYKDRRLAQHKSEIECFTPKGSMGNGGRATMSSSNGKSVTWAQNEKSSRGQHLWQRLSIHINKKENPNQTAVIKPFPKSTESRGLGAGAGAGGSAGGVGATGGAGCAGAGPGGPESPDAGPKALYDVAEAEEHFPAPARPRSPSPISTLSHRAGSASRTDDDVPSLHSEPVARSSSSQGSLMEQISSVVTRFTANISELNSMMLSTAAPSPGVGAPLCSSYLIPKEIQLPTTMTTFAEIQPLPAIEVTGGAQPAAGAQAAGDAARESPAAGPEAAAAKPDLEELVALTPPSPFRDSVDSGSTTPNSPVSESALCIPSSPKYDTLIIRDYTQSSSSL

[2] = molecular target: T1, Metabotropic glutamate receptor 5; test: Negative allosteric modulation of human mGlu5 receptor expressed in HEK293 cells assessed as inhibition of L-glutamate-induced activity after 1 hr by FLIPR assay relative to control; design: concentration or dose not given beside the values; details: concentration not given here
Target sequence in this assay (P41594 21-1212 limits assumed): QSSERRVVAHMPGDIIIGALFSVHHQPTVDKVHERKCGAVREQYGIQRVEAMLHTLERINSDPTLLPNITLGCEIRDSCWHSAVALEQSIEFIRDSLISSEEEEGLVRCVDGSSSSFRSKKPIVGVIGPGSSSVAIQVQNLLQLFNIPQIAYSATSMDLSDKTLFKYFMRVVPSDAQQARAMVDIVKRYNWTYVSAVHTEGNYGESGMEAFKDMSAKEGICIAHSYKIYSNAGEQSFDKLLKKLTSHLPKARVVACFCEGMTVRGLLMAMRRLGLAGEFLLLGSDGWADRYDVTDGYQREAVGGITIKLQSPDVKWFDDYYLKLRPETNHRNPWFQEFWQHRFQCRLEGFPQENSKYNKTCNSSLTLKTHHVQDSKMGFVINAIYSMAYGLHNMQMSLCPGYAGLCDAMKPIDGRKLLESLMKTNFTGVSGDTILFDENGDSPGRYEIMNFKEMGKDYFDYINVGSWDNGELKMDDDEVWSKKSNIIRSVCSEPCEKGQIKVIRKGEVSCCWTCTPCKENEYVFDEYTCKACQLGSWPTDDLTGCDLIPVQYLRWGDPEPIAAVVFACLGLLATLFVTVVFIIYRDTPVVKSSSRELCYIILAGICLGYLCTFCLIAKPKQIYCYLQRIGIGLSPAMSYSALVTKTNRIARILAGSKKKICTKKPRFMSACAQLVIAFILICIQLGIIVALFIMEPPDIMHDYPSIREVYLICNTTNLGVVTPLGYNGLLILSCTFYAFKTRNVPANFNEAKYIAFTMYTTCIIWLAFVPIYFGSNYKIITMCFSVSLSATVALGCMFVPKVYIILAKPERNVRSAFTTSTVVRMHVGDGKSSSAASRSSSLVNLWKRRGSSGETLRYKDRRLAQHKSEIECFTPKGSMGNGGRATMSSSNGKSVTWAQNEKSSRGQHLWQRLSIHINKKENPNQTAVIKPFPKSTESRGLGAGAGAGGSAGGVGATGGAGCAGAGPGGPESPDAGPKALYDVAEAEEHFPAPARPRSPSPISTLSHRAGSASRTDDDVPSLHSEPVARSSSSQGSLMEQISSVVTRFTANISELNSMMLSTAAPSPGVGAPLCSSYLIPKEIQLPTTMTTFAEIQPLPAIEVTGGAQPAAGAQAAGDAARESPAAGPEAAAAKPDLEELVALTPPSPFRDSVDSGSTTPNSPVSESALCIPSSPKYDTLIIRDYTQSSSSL

[3] = molecular target: T1, Metabotropic glutamate receptor 5; test: Positive allosteric modulation of human mGlu5 receptor expressed in HEK293 cells assessed as potentiation of L-glutamate-induced activity after 1 hr by FLIPR assay
Target sequence in this assay (P41594 whole entry): as the sequence (P41594 whole entry) above

[4] = molecular target: T1, Metabotropic glutamate receptor 5; test: Positive allosteric modulation of human mGlu5 receptor expressed in HEK293 cells assessed as potentiation of L-glutamate-induced activity after 1 hr by FLIPR assay relative to control
Target sequence in this assay (P41594 21-1212 limits assumed): as the sequence (P41594 21-1212 limits assumed) above

| Structure (SMILES) | IC50 [1] [nM] | inhibition [2] [%] | EC50 [3] [nM] | Emax [4] [%] |
| --- | --- | --- | --- | --- |
| O=C(C1CCCC1)N1CCc2nc(C#Cc3ccccc3)sc2C1 | > 10000 | 42 | 19 | 280 |
| O=C(C1CCOCC1)N1CCc2nc(C#Cc3ccccc3)sc2C1 | > 10000 | – | 290 | 120 |
| CC1CCCC(C(=O)N2CCc3nc(C#Cc4ccccc4)sc3C2)C1 (stereo unspecified) | > 10000 | 20 | 100 | 260 |
| O=C(C1CCCO1)N1CCc2nc(C#Cc3ccccc3)sc2C1 (stereo unspecified) | > 10000 | -1 | 790 | 89 |
| CN(C)S(=O)(=O)N1CCc2nc(C#Cc3ccccc3)sc2C1 | 5.7 | 71 | > 10000 | -6 |
| CCN1CCc2nc(C#Cc3ccccc3)sc2C1 | 1200 | 51 | > 10000 | -6 |
| O=C(N1CCC(F)CC1)N1CCc2nc(C#Cc3ccccc3)sc2C1 | > 10000 | 15 | 74 | 100 |
| CC(C)CN1CCc2nc(C#Cc3ccccc3)sc2C1 | 650 | 94 | > 10000 | -48 |
| CC1CC1C(=O)N1CCc2nc(C#Cc3ccccc3)sc2C1 (stereo unspecified) | > 10000 | 6.3 | 9.4 | 42 |
| O=C(C1CCC(F)(F)CC1)N1CCc2nc(C#Cc3ccccc3)sc2C1 | > 10000 | 10 | 70 | 190 |
| CC(C)S(=O)(=O)N1CCc2nc(C#Cc3ccccc3)sc2C1 | 11 | 75 | > 10000 | -4 |
| O=C(C1CCOC1)N1CCc2nc(C#Cc3ccccc3)sc2C1 (stereo unspecified) | > 10000 | 45 | 130 | 96 |
| Cc1cccc(C(=O)N2CCc3nc(C#Cc4ccccc4)sc3C2)c1 | > 10000 | – | 99 | 170 |
| Fc1cccc(C#Cc2nc3c(s2)CN(C2CCOC2)CC3)c1 (stereo unspecified) | 400 | 91 | > 10000 | -47 |
| O=S(=O)(C1CCCCC1)N1CCc2nc(C#Cc3ccccc3)sc2C1 | 480 | 81 | > 10000 | -17 |
| CCC(=O)N1CCc2nc(C#Cc3ccccc3)sc2C1 | 38 | 79 | > 10000 | -17 |
| O=C(N1CCc2nc(C#Cc3ccccc3)sc2C1)N1CCC(F)(F)C1 | > 10000 | 26 | 53 | 170 |
| Cc1nc(C(=O)N2CCc3nc(C#Cc4ccccc4)sc3C2)cs1 | > 10000 | 3.7 | 220 | 110 |
| O=S(=O)(C1CCCCC1)N1Cc2nc(C#Cc3ccccc3)sc2C1 | > 10000 | – | 150 | 110 |
| O=C(C1CC(F)(F)C1)N1CCc2nc(C#Cc3ccc(F)cc3)sc2C1 | > 10000 | 13 | 150 | 73 |
| O=C1c2sc(C#Cc3ccccc3)nc2CN1C1CC1 | 23 | 59 | > 10000 | 11 |
| O=C(c1cccc(Cl)c1)N1CCc2nc(C#Cc3ccccc3)sc2C1 | > 10000 | 26 | 8.7 | 170 |

| Structure (SMILES) | IC50 [1] [nM] | inhibition [2] [%] | EC50 [3] [nM] | Emax [4] [%] |
| --- | --- | --- | --- | --- |
| O=C(C1CCCCC1)N1CCc2nc(C#Cc3ccccc3)sc2C1 | > 10000 | – | 167 | 153 |
| Cc1cc(C(=O)N2CCc3nc(C#Cc4ccccc4)sc3C2)no1 | > 10000 | – | 1600 | 71 |
| O=S(=O)(C1CC1)N1CCc2nc(C#Cc3ccccc3)sc2C1 | 34 | 87 | > 10000 | -12 |
| O=C1NCCc2nc(C#Cc3ccc(F)cc3)sc21 | > 10000 | – | 5200 | 310 |
| O=C1NCCc2nc(C#Cc3ccccc3)sc21 | > 10000 | – | 112 | 243 |
| O=C1NCCc2nc(C#Cc3cccc(F)c3)sc21 | > 10000 | – | 290 | 310 |
| O=C1NCCc2nc(C#Cc3cccc(Cl)c3)sc21 | > 10000 | – | 2500 | 120 |
| O=C(N1CCC(F)(F)CC1)N1CCc2nc(C#Cc3ccccc3)sc2C1 | > 10000 | 3 | 72 | 100 |
| CC(=O)N1CCc2nc(C#Cc3ccccc3)sc2C1 | 90 | 79 | > 10000 | -18 |
| N#Cc1cccc(C(=O)N2CCc3nc(C#Cc4ccccc4)sc3C2)c1 | > 10000 | 16 | 71 | 150 |
| Fc1cccc(C#Cc2nc3c(s2)CN(C2CCCC2)CC3)c1 | 640 | 94 | > 10000 | -44 |
| O=C(N1CCc2nc(C#Cc3ccccc3)sc2C1)N1CC(F)C1 | > 10000 | 9 | > 10000 | 27 |
| C(#Cc1nc2c(s1)CN(C1CCCCC1)CC2)c1ccccc1 | > 10000 | 1 | > 10000 | 19 |
| O=C1NCCc2nc(C#Cc3cccnc3)sc21 | > 10000 | – | 51 | 120 |
| O=C1NCCc2nc(C#Cc3ccccc3F)sc21 | > 10000 | – | 1500 | 320 |
| O=C(C1CC(F)(F)C1)N1CCc2nc(C#Cc3cccc(F)c3)sc2C1 | > 10000 | 45 | 2.5 | 72 |
| O=S(=O)(N1CCOCC1)N1CCc2nc(C#Cc3ccccc3)sc2C1 | 13 | 89 | > 10000 | 1.5 |
| O=C(C1CC1)N1CCc2nc(C#Cc3ccccc3)sc2C1 | 290 | 61 | > 10000 | -13 |
| CCCCN1CCc2nc(C#Cc3ccccc3)sc2C1 | > 10000 | 28 | 110 | 32 |
| O=C([C@H]1CC2CCC1C2)N1CCc2nc(C#Cc3ccccc3)sc2C1 (stereo partly specified) | > 10000 | 8 | 18 | 280 |
| CC1CC(C(=O)N2CCc3nc(C#Cc4cccc(F)c4)sc3C2)C1 (stereo unspecified) | > 10000 | 19 | 17 | 87 |
| O=S(=O)(N1CCCC1)N1CCc2nc(C#Cc3ccccc3)sc2C1 | 36 | 78 | > 10000 | -9 |

| Structure (SMILES) | IC50 [1] [nM] | inhibition [2] [%] | EC50 [3] [nM] | Emax [4] [%] |
| --- | --- | --- | --- | --- |
| COc1cccc(C(=O)N2CCc3nc(C#Cc4ccccc4)sc3C2)c1 | > 10000 | 6.7 | 29 | 150 |
| CC(C)CCN1CCc2nc(C#Cc3ccccc3)sc2C1 | > 10000 | – | 100 | 180 |
| CN1CCC(C(=O)N2CCc3nc(C#Cc4ccccc4)sc3C2)CC1 | > 10000 | – | 1200 | 70 |
| CC1CCC(C(=O)N2CCc3nc(C#Cc4ccccc4)sc3C2)CC1 (stereo unspecified) | > 10000 | 0 | 190 | 80 |
| CCN1CCc2nc(C#Cc3cccc(F)c3)sc2C1 | 72 | 87 | > 10000 | -2 |
| CN1CCc2nc(C#Cc3cccc(F)c3)sc2C1 | > 10000 | 6 | > 10000 | -8 |
| O=C(N1CCc2nc(C#Cc3ccccc3)sc2C1)N1CC(F)(F)C1 | > 10000 | -9 | 26 | 94 |
| CC(C)S(=O)(=O)N1Cc2nc(C#Cc3ccccc3)sc2C1 | 140 | 74 | > 10000 | -35 |
| O=C(C1CCCCO1)N1CCc2nc(C#Cc3ccccc3)sc2C1 (stereo unspecified) | > 10000 | 35 | 320 | 100 |
| CC1CC(C(=O)N2CCc3nc(C#Cc4ccccc4)sc3C2)C1 (stereo unspecified) | > 10000 | 13 | 81 | 120 |
| O=C(c1cccc(F)c1)N1CCc2nc(C#Cc3ccccc3)sc2C1 | > 10000 | – | 30 | 160 |
| O=C1c2sc(C#Cc3ccccc3)nc2CN1C1CCCC1 | > 10000 | – | 2.5 | 150 |
| O=S(=O)(N1CCCCC1)N1Cc2nc(C#Cc3ccccc3)sc2C1 | > 10000 | – | 250 | 89 |
| O=C(CC1CCOCC1)N1CCc2nc(C#Cc3ccccc3)sc2C1 | > 10000 | -2 | 470 | 45 |
| O=C(C1CC(F)C1)N1CCc2nc(C#Cc3ccccc3)sc2C1 (stereo unspecified) | > 10000 | 38 | 85 | 61 |
| O=C(C1CC12CCC2)N1CCc2nc(C#Cc3ccccc3)sc2C1 (stereo unspecified) | > 10000 | 10 | 3.9 | 95 |
| O=C(c1cccc(C(F)(F)F)c1)N1CCc2nc(C#Cc3ccccc3)sc2C1 | > 10000 | 12 | 11 | 170 |
| O=C(C1CCC1)N1CCc2nc(C#Cc3ccccc3)sc2C1 | 370 | 81 | > 10000 | 3 |
| COc1ccccc1C#Cc1nc2c(s1)C(=O)NCC2 | > 10000 | – | > 10000 | 44 |
| Cc1cccc(C#Cc2nc3c(s2)C(=O)NCC3)c1 | > 10000 | – | > 10000 | 50 |
| O=C(N1CCCCC1)N1CCc2nc(C#Cc3ccccc3)sc2C1 | > 10000 | – | 75 | 120 |

Source: ChEMBL document CHEMBL2401712, “Fused thiazolyl alkynes as potent mGlu5 receptor positive allosteric modulators” (Bioorg Med Chem Lett, 2013)
